Source: PubChem BioAssay (NCI)
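Protocol summary: plate cells (96-well), add compound at 5 concentrations, incubate 48 h, interpolate endpoints linearly. Here, GI50 denotes the concentration required for 50% inhibition of growth. TGI marks complete inhibition of growth.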

These compounds were tested on HOP-92 NSCLC (assay: DTP human tumour cell line panel, 48 h).

Going from `Cc1cn(-c2cc(C(=O)Nc3cccc(-n4ccc5c(NC(=O)c6ccccc6)nccc54)c3)cc(C(F)(F)F)c2)cn1` to `O=C(Nc1cc(Cl)ccc1O)c1ccc(Nc2ccnc(C(F)(F)F)c2)cc1`, the GI50 rises from 0.39 µM to 2.24 µM (5.7-fold).

For `COc1cc2cc(Oc3ccc(NC(=O)c4cc(C(F)(F)F)cc(C(F)(F)F)c4)cc3)c(C)nc2cc1OC`, the GI50 was 1.82 µM.

`Cc1cn(-c2cc(C(=O)Nc3cccc(-n4ccc5c(NC(=O)c6ccccc6)nccc54)c3)cc(C(F)(F)F)c2)cn1` and `O=C(Nc1cc(Cl)ccc1O)c1ccc(Nc2ccnc(C(F)(F)F)c2)cc1` are within 1.5-fold of each other in TGI: 6.49 µM for the first, 6.12 µM for the second.

Compound `COc1cc2cc(Oc3ccc(NC(=O)c4cc(C(F)(F)F)cc(C(F)(F)F)c4)cc3)c(C)nc2cc1OC` has a TGI greater than 50 µM.

Each compound was assayed on SR leukemia (assay: DTP human tumour cell line panel, 48 h).

First: Cc1cn(-c2cc(C(=O)Nc3cccc(-n4ccc5c(NC(=O)c6ccccc6)nccc54)c3)cc(C(F)(F)F)c2)cn1
Second: O=C(Nc1cc(Cl)ccc1O)c1ccc(Nc2ccnc(C(F)(F)F)c2)cc1
The GI50 of the first is 18-fold lower: 0.14 µM for the first, 2.52 µM for the second.

First: COc1cc2cc(Oc3ccc(NC(=O)c4cc(C(F)(F)F)cc(C(F)(F)F)c4)cc3)c(C)nc2cc1OC
Second: ClCCN(CCCl)c1ccc(CNc2ccccc2)cc1
The GI50 of the first is 7.1-fold higher: 4.8 µM for the first, 0.674 µM for the second.

First: COc1cc2cc(Oc3ccc(NC(=O)c4cc(C(F)(F)F)cc(C(F)(F)F)c4)cc3)c(C)nc2cc1OC
Second: O=C(Nc1cc(Cl)ccc1O)c1ccc(Nc2ccnc(C(F)(F)F)c2)cc1
The TGI of the first is higher: greater than 50 µM for the first, 9.84 µM for the second.

With `ClCCN(CCCl)c1ccc(CNc2ccccc2)cc1` the TGI was greater than 100 µM.

The compounds below were run on PC-3 prostate (assay: DTP human tumour cell line panel, 48 h).

Compared with `Cc1cn(-c2cc(C(=O)Nc3cccc(-n4ccc5c(NC(=O)c6ccccc6)nccc54)c3)cc(C(F)(F)F)c2)cn1`, `O=C(Nc1cc(Cl)ccc1O)c1ccc(Nc2ccnc(C(F)(F)F)c2)cc1` is 6.9-fold higher in GI50: 0.393 µM for the first, 2.72 µM for the second.

Going from `COc1cc2cc(Oc3ccc(NC(=O)c4cc(C(F)(F)F)cc(C(F)(F)F)c4)cc3)c(C)nc2cc1OC` to `ClCCN(CCCl)c1ccc(CNc2ccccc2)cc1`, the GI50 rises from 1.66 µM to 11.6 µM (7-fold).

Going from `Cc1cn(-c2cc(C(=O)Nc3cccc(-n4ccc5c(NC(=O)c6ccccc6)nccc54)c3)cc(C(F)(F)F)c2)cn1` to `O=C(Nc1cc(Cl)ccc1O)c1ccc(Nc2ccnc(C(F)(F)F)c2)cc1`, the TGI falls from 15.6 µM to 9.02 µM (1.7-fold).

`COc1cc2cc(Oc3ccc(NC(=O)c4cc(C(F)(F)F)cc(C(F)(F)F)c4)cc3)c(C)nc2cc1OC` and `ClCCN(CCCl)c1ccc(CNc2ccccc2)cc1` cannot be ordered by TGI: greater than 50 µM for the first, greater than 100 µM for the second.

Each compound was assayed on A549 NSCLC (assay: DTP human tumour cell line panel, 48 h).

Compared with `Cc1cn(-c2cc(C(=O)Nc3cccc(-n4ccc5c(NC(=O)c6ccccc6)nccc54)c3)cc(C(F)(F)F)c2)cn1`, `O=C(Nc1cc(Cl)ccc1O)c1ccc(Nc2ccnc(C(F)(F)F)c2)cc1` is 7.9-fold higher in GI50: 0.502 µM for the first, 3.97 µM for the second.

`COc1cc2cc(Oc3ccc(NC(=O)c4cc(C(F)(F)F)cc(C(F)(F)F)c4)cc3)c(C)nc2cc1OC` and `ClCCN(CCCl)c1ccc(CNc2ccccc2)cc1` are within 1.5-fold of each other in GI50: 3.08 µM for the first, 4.36 µM for the second.

Compared with `Cc1cn(-c2cc(C(=O)Nc3cccc(-n4ccc5c(NC(=O)c6ccccc6)nccc54)c3)cc(C(F)(F)F)c2)cn1`, `O=C(Nc1cc(Cl)ccc1O)c1ccc(Nc2ccnc(C(F)(F)F)c2)cc1` is higher in TGI: 5.34 µM for the first, greater than 100 µM for the second.

`COc1cc2cc(Oc3ccc(NC(=O)c4cc(C(F)(F)F)cc(C(F)(F)F)c4)cc3)c(C)nc2cc1OC` and `ClCCN(CCCl)c1ccc(CNc2ccccc2)cc1` cannot be ordered by TGI: greater than 50 µM for the first, greater than 100 µM for the second.

What follows are compounds tested on NCI-H226 lung (assay: DTP human tumour cell line panel, 48 h).

First: Cc1cn(-c2cc(C(=O)Nc3cccc(-n4ccc5c(NC(=O)c6ccccc6)nccc54)c3)cc(C(F)(F)F)c2)cn1
Second: O=C(Nc1cc(Cl)ccc1O)c1ccc(Nc2ccnc(C(F)(F)F)c2)cc1
The GI50 of the first is 3.9-fold lower: 0.524 µM for the first, 2.02 µM for the second.

Going from `COc1cc2cc(Oc3ccc(NC(=O)c4cc(C(F)(F)F)cc(C(F)(F)F)c4)cc3)c(C)nc2cc1OC` to `ClCCN(CCCl)c1ccc(CNc2ccccc2)cc1`, the GI50 rises from 6.2 µM to 10.3 µM (1.7-fold).

Going from `Cc1cn(-c2cc(C(=O)Nc3cccc(-n4ccc5c(NC(=O)c6ccccc6)nccc54)c3)cc(C(F)(F)F)c2)cn1` to `O=C(Nc1cc(Cl)ccc1O)c1ccc(Nc2ccnc(C(F)(F)F)c2)cc1`, the TGI falls from 17.1 µM to 7.33 µM (2.3-fold).

Going from `COc1cc2cc(Oc3ccc(NC(=O)c4cc(C(F)(F)F)cc(C(F)(F)F)c4)cc3)c(C)nc2cc1OC` to `ClCCN(CCCl)c1ccc(CNc2ccccc2)cc1`, the TGI falls from greater than 50 µM to 28.2 µM.

The compounds below were run on KM12 colon (assay: DTP human tumour cell line panel, 48 h).

First: Cc1cn(-c2cc(C(=O)Nc3cccc(-n4ccc5c(NC(=O)c6ccccc6)nccc54)c3)cc(C(F)(F)F)c2)cn1
Second: O=C(Nc1cc(Cl)ccc1O)c1ccc(Nc2ccnc(C(F)(F)F)c2)cc1
The GI50 of the first is 8.6-fold lower: 0.372 µM for the first, 3.19 µM for the second.

Compared with `COc1cc2cc(Oc3ccc(NC(=O)c4cc(C(F)(F)F)cc(C(F)(F)F)c4)cc3)c(C)nc2cc1OC`, `ClCCN(CCCl)c1ccc(CNc2ccccc2)cc1` is 8.9-fold higher in GI50: 2.79 µM for the first, 24.7 µM for the second.

Compared with `Cc1cn(-c2cc(C(=O)Nc3cccc(-n4ccc5c(NC(=O)c6ccccc6)nccc54)c3)cc(C(F)(F)F)c2)cn1`, `O=C(Nc1cc(Cl)ccc1O)c1ccc(Nc2ccnc(C(F)(F)F)c2)cc1` is 13-fold higher in TGI: 1.46 µM for the first, 18.8 µM for the second.

`COc1cc2cc(Oc3ccc(NC(=O)c4cc(C(F)(F)F)cc(C(F)(F)F)c4)cc3)c(C)nc2cc1OC` and `ClCCN(CCCl)c1ccc(CNc2ccccc2)cc1` cannot be ordered by TGI: greater than 50 µM for the first, greater than 100 µM for the second.

What follows are compounds tested on SF-295 CNS (assay: DTP human tumour cell line panel, 48 h).

First: Cc1cn(-c2cc(C(=O)Nc3cccc(-n4ccc5c(NC(=O)c6ccccc6)nccc54)c3)cc(C(F)(F)F)c2)cn1
Second: O=C(Nc1cc(Cl)ccc1O)c1ccc(Nc2ccnc(C(F)(F)F)c2)cc1
The GI50 of the first is 7.2-fold lower: 0.306 µM for the first, 2.2 µM for the second.

Going from `COc1cc2cc(Oc3ccc(NC(=O)c4cc(C(F)(F)F)cc(C(F)(F)F)c4)cc3)c(C)nc2cc1OC` to `ClCCN(CCCl)c1ccc(CNc2ccccc2)cc1`, the GI50 rises from 1.64 µM to 3.16 µM (1.9-fold).

Going from `Cc1cn(-c2cc(C(=O)Nc3cccc(-n4ccc5c(NC(=O)c6ccccc6)nccc54)c3)cc(C(F)(F)F)c2)cn1` to `O=C(Nc1cc(Cl)ccc1O)c1ccc(Nc2ccnc(C(F)(F)F)c2)cc1`, the TGI rises from 1.44 µM to 7.03 µM (4.9-fold).

`COc1cc2cc(Oc3ccc(NC(=O)c4cc(C(F)(F)F)cc(C(F)(F)F)c4)cc3)c(C)nc2cc1OC` and `ClCCN(CCCl)c1ccc(CNc2ccccc2)cc1` cannot be ordered by TGI: greater than 50 µM for the first, greater than 100 µM for the second.

The compounds below were run on SN12C renal (assay: DTP human tumour cell line panel, 48 h).

`Cc1cn(-c2cc(C(=O)Nc3cccc(-n4ccc5c(NC(=O)c6ccccc6)nccc54)c3)cc(C(F)(F)F)c2)cn1` was tested, and the GI50 was 1.04 µM.

`Cc1cn(-c2cc(C(=O)Nc3cccc(-n4ccc5c(NC(=O)c6ccccc6)nccc54)c3)cc(C(F)(F)F)c2)cn1` was tested, and the TGI was 17.1 µM.
